US20250352612A1, “PHARMACEUTICAL AGENT TO PREVENT THE ADVERSE EFFECTS OF ROTAVIRUS NSP4 PROTEIN” (priority 2022, published 2025)

How the values were obtained:
Format in all cases: cell-based
intestinal cell line = assay: Intracellular calcium amount after NSP4 and PlnA administration in intestinal cell line; details: co-administration of NSP4 and PlnA-containing agent
Text: In an exemplary embodiment of the pharmaceutical agent developed with the present invention, a pharmaceutical agent containing the Lactobacillus plantarum bacteriocin Plantaricin A (PlnA) is used to reduce the intracellular calcium content of the rotavirus NSP4 protein in the intestinal cell line. Thus, the amount of intracellular calcium increased by the NSP4 protein is reduced and, therefore, cell death and ER disruption caused by rotavirus through apoptosis is prevented by this strategy.

IL-10 [1] = assay: IL-10 protein levels after NSP4 and PlnA administration; details: NSP4 and PlnA-containing agent; for increase of IL-10 protein levels compared to the control group without any application: Graph 3
IL-10 [2] = assay: IL-10 mRNA levels (gene expression) after NSP4 and PlnA administration; details: NSP4 and PlnA containing agent together, Graph 5

Plantaricin A [PlnA-containing pharmaceutical agent]
decrease of amount of intracellular calcium compared to the NSP4-treated first group (intestinal cell line; 6th hour, Graph 1): 3.75 fold | decrease of amount of intracellular calcium compared to the control group (intestinal cell line; 6th hour, Graph 1): 1.64 fold | amount of intracellular calcium compared to the control group (intestinal cell line; 12 hours, Graph 2): the same amount of calcium was observed in the control group | decrease of amount of intracellular calcium compared to the first group administered NSP4 (intestinal cell line; 12 hours, Graph 2): 2.67 times | increase of IL-10 protein levels compared to the control group without any application (IL-10 [1]; 3rd hour): 2 fold | increase of IL-10 protein levels compared to the control group without any application (IL-10 [1]; 6th hour): 1.43 fold | IL-10 protein levels compared to the control group (IL-10 [1]; 12 hours, Graph 4): no significant difference | increase of IL-10 protein levels compared to the control group (IL-10 [1]; 24 hours, Graph 4): 1.13 fold | increase of IL-10 mRNA level compared to the control group (IL-10 [2]; 12th hour): 0.68 fold | NSP4-induced suppression of IL-10 gene expression (IL-10 [2]): this suppression was reduced
